The structures appear in SMILES notation. pEC50, pIC50: −log10 of the molar value.

Assay [1] deals with Tyrosine-protein kinase ABL1 (Homo sapiens, UniProt P00519).
Another assay addresses Bcr/Abl fusion protein (Homo sapiens, UniProt P00519). It counts as functional, cell-based, K562.

Sequence of Tyrosine-protein kinase ABL1 (P00519 whole entry, the tested form may be a part): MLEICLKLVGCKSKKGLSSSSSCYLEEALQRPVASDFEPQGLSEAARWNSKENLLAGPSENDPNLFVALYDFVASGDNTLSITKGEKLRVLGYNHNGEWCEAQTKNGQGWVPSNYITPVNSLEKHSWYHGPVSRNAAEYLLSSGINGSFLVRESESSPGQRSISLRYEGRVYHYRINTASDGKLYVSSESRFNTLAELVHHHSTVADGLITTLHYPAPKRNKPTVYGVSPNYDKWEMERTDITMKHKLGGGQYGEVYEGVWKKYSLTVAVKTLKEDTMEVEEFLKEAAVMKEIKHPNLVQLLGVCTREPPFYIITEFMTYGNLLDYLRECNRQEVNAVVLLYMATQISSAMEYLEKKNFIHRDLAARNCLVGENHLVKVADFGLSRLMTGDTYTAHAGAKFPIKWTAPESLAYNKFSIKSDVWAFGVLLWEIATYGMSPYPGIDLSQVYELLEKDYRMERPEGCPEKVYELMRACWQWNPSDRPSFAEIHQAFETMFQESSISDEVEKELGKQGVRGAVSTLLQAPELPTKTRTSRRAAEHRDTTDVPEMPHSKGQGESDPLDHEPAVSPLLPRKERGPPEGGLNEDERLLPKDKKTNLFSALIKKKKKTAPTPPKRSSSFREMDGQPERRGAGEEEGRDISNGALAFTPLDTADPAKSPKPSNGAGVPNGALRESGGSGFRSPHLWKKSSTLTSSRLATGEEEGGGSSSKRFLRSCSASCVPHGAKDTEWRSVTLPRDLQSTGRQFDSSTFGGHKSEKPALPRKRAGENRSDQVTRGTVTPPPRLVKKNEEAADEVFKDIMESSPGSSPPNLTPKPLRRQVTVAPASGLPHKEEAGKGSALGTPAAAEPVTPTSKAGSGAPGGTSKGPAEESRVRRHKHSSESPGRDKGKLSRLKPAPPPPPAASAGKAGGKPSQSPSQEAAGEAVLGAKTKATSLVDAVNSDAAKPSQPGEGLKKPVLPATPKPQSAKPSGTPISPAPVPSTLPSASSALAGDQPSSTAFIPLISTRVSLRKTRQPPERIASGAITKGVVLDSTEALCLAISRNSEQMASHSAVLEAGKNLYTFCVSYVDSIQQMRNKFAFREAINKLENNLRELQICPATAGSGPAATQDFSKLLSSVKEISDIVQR
Sequence of Bcr/Abl fusion protein (P00519 whole entry, the tested form may be a part): as above
Sequence of Bcr/Abl fusion protein (P11274 whole entry, further chain, the tested form may be a part): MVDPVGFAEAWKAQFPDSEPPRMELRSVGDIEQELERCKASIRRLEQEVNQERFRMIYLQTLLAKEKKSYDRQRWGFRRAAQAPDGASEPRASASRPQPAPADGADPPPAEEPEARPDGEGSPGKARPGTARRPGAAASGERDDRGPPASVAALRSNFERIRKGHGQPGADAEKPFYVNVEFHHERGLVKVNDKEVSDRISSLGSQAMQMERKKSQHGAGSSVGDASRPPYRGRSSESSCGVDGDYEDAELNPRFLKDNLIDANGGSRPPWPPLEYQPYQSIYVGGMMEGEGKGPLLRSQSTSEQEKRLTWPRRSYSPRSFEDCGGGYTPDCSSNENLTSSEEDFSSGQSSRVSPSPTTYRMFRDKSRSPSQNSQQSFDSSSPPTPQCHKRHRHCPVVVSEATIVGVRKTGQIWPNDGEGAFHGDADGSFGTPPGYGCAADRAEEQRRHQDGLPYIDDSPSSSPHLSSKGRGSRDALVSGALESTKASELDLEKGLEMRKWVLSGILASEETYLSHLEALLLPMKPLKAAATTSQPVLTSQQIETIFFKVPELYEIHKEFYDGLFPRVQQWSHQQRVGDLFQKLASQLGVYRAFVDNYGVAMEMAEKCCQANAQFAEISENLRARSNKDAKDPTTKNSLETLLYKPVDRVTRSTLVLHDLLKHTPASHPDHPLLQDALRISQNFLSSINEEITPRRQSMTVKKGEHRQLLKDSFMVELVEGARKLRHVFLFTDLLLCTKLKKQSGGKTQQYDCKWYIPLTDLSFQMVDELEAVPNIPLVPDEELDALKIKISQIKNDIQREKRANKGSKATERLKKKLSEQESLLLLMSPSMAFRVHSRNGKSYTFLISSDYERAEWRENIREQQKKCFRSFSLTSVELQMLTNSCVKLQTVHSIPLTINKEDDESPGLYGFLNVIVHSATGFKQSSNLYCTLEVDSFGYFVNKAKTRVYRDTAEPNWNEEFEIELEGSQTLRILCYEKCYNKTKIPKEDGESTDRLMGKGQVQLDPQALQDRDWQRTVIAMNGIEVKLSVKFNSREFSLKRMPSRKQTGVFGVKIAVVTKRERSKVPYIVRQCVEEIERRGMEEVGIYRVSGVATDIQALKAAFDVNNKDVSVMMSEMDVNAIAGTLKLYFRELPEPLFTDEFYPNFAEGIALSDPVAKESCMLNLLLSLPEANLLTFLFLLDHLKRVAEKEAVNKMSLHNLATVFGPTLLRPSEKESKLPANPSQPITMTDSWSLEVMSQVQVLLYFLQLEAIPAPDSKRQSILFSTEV

Compound `COc1ccc(Oc2ccc3[nH]nc(-c4nc5cc(N6CCC(N7CCCCC7)CC6)ccc5[nH]4)c3c2)cc1` had a pIC50 in assay [1] of 6.66.

In assay [1], `COc1ccccc1Oc1ccc2[nH]nc(-c3nc4cc(N5CCC(N6CCCCC6)CC5)ccc4[nH]3)c2c1` had a pIC50 of 7.70.

In turn, `c1ccc(CN2CCC(Nc3ccc4[nH]nc(-c5nc6cc(N7CCC(N8CCCCC8)CC7)ccc6[nH]5)c4c3)CC2)cc1` gave a pEC50 on Bcr/Abl fusion protein of 7.15. In assay [1], the pIC50 is 8.15.

Consider `COc1ccc2[nH]nc(-c3nc4ccc(N5CCC(N6CCCCC6)CC5)cc4[nH]3)c2c1`, for which the pIC50 in assay [1] was 6.64.

On to `c1csc(CNc2ccc3[nH]nc(-c4nc5cc(N6CCC(N7CCCCC7)CC6)ccc5[nH]4)c3c2)n1`, for which the pEC50 on Bcr/Abl fusion protein was 8.00. In assay [1], this compound gave a pIC50 of 8.00.

`c1ccc(COc2ccc3c(-c4nc5ccc(N6CCC(N7CCCCC7)CC6)cc5[nH]4)n[nH]c3c2)cc1` had a negative-log IC50 (pIC50) in assay [1] of 6.70.

`c1ccc(CNc2ccc3[nH]nc(-c4nc5ccc(N6CCC(N7CCCCC7)CC6)cc5[nH]4)c3c2)cc1` showed a pEC50 on Bcr/Abl fusion protein of 5.74. The same compound had a pIC50 in assay [1] of 6.89.

At Bcr/Abl fusion protein, `c1coc(CNc2ccc3[nH]nc(-c4nc5cc(N6CCC(N7CCCCC7)CC6)ccc5[nH]4)c3c2)c1` gave a pEC50 of 7.52. The same compound gave a pIC50 in assay [1] of 7.22.

In turn, `CC(C)(C)NC(=O)Nc1ccc2[nH]nc(-c3nc4ccc(N5CCC(N6CCCCC6)CC5)cc4[nH]3)c2c1` had a pEC50 on Bcr/Abl fusion protein of 6.44. Besides, the pIC50 in assay [1] is 7.52.

In turn, `COc1cccc(Oc2ccc3[nH]nc(-c4nc5cc(N6CCC(N7CCCCC7)CC6)ccc5[nH]4)c3c2)c1` showed a pIC50 in assay [1] of 7.22.

The compound `c1ccc2c(-c3nc4ccc(N5CCC(N6CCCCC6)CC5)cc4[nH]3)n[nH]c2c1` gave a pIC50 in assay [1] of 6.22. This pIC50 is 1.00 log units lower than that of the compound before.

Consider `c1ccc(COc2cc3[nH]nc(-c4nc5cc(N6CCC(N7CCCCC7)CC6)ccc5[nH]4)c3cc2OCc2ccccc2)cc1`, for which, in assay [1], the pIC50 was 6.05. The pIC50 values of the last two compounds are within 0.2 log units of each other.

Compound `O=C(Nc1ccc2[nH]nc(-c3nc4ccc(N5CCC(N6CCCCC6)CC5)cc4[nH]3)c2c1)c1ccco1` had a pEC50 on Bcr/Abl fusion protein of 6.25. This compound had a pIC50 in assay [1] of 6.82.

In turn, `COc1cc2[nH]nc(-c3nc4ccc(N5CCC(N6CCCCC6)CC5)cc4[nH]3)c2cc1OCc1ccccc1` gave a pIC50 in assay [1] of 8.52.

Compound `c1ccc(COc2ccc3[nH]nc(-c4nc5ccc(N6CCC(N7CCCCC7)CC6)cc5[nH]4)c3c2)cc1` had a negative-log EC50 (pEC50) on Bcr/Abl fusion protein of 6.01. In assay [1], this compound gave a pIC50 of 7.22.

The compound `c1ccc(Oc2ccc3[nH]nc(-c4nc5ccc(N6CCC(N7CCCCC7)CC6)cc5[nH]4)c3c2)cc1` gave a pIC50 in assay [1] of 7.52.

Source of the values: ChEMBL document CHEMBL1137421, “3-Benzimidazol-2-yl-1H-indazoles as potent c-ABL inhibitors” (Bioorg Med Chem Lett, 2006).
